Assays:
in vitro = conditions: rat
Source text: (§1) Data is expressed as a percentage of the number of viable cells (as determined by LDH activity) in the non-hydrolysed gelatin sandwich at each time point. Native Gel/cell slurry (-{acute over (◯)}-) wherein hepatocytes suspended in a gel of non-hydrolysed gelatin; Pre-adhered hepatocytes with Native gel blanket (-▪-) wherein hepatocytes allowed to adhere to the substratum before being blanketed by gel of non-hydrolysed gelatin; hydrolysed gelatin slurry (-x-) wherein hepatocytes suspended in a gel of non-hydrolysed gelatin hydrolysed at 95° C.; 75 bloom slurry (--) wherein hepatocytes suspended in a gel composed of 75 bloom gelatin (commercially available from Sigma); Pre-attached hepatocytes with Hydrolysed gel blanket (-◯-) wherein hepatocytes allowed to adhere to the substratum before being blanketed by a gel of hydrolysed gelatin.

Source text for hepatocytes: as §1

OCC(O)CO [glycerol]
viability at 7 days, 0.5 M (in vitro): 10% | cytotoxicity to hepatocytes during preservation (hepatocytes): cytotoxic

— US20090042289A1, “Preservation of Cells” (University of Wales, Cardiff, priority 2000, published 2009)
